Columns and labels:
Type in all cases: cell-based, human
[1] = test system: pro-inflammatory genes A20, CCL20, IL6, IL8, CXCL2, JUNB and IEX1; experiment: mRNA levels of pro-inflammatory genes under basal conditions, HeLa, RT-qPCR; details: HeLa cells, 2 hours, 50 μM SPI
Protocol: Cell culture—HEK293T, HeLa, MCF7, Jurkat and mouse embryonic fibroblasts (MEFs) cells were grown and maintained in Dulbecco's modified Eagle's medium supplemented with 10% fetal calf serum (Gibco) and 1% penicillin-streptomycin. To avoid NF-κB activity, HeLa cells were kept from reaching confluence and re-plated no more than 10 times following initial thawing. To induce NF-κB activity, cells were treated with […] recombinant human TNF-α (Peprotech) for the indicated times. STHdh Q111 and STHdh Q7 striatal cell lines (Coriell Institute for Medical Research) were grown in Dulbecco's modified Eagle's medium supplemented with 10% fetal calf serum (Gibco), 1% penicillin-streptomycin and 0.4 mg/ml G418 at 33° C. The cells were re-plated no more than 5-6 times, as recommended.
RNA analysis—Total RNA was extracted using Tri-reagent (Bio-Lab Chemicals) and Direct-Zol™ RNA MiniPrep kit (Zymo Research). Following, cDNA was synthesized from […] of total RNA using a High-Capacity cDNA Reverse Transcription Kit (ABI, Thermo Fisher Scientific). cDNA samples were analyzed by quantitative PCR (qPCR) in a ViiA 7 Real-Time PCR System using Fast qPCRBIO SYBR Green Mix (PCR Biosystems).
Thus, a subset of Spt5-responsive pro-inflammatory genes from the aforementioned studies and from others (Aida et al., 2006; Fujita et al., 2009), namely A20, CCL20, IL6, IL8, CXCL2, JUNB and IEX1, were selected and the effect of the identified SPIs on their expression under basal conditions and in response to NF-κB activation was tested (FIGS. 2A-C and 3A-C). Specifically, for analyzing expression under basal conditions, Hela cells were treated with vehicle (DMSO) or SPI for 2 hours and following RNA was extracted and analyzed by RT-qPCR.

[2] = test system: replication-dependent histone genes; experiment: RNA-seq after 24-h treatment: replication-dependent histone genes; parameters: HIST1H2AH level, RNA-seq / HIST1H2AI level, RNA-seq / HIST1H2AK level, RNA-seq / HIST1H2AL level, RNA-seq / HIST1H2BF level, RNA-seq / HIST1H3A level, RNA-seq / HIST1H3B level, RNA-seq / HIST1H3D level, RNA-seq: scale not given here; details: SPI-21 24 h
Protocol: (§1) High-throughput sequencing of the total, labeled and Run-On transcripts (RNA-Seq and Gro-seq)—_The RNA-Seq libraries were prepared by the Genomics unit in The Nancy and Stephen Grand Israel National Center for Personalized Medicine (G-INCPM, Weizmann Institute of Science). Samples from 2-hour SPI treatment were prepared using in-house mRNA Seq protocol and polyA capturing and those from 24-hpur and 4sU treatments were prepared using the same protocol w/o PolyA capture (with random hexamers), and sequenced using an Illumina HiSeq 2500 system yielding about 30M SE reads of 61 bases. The GRO-seq RNA samples were reverse transcribed and amplified (15 cycles) using in-house mRNA Seq protocol w/o PolyA capture (with random hexamers) and sequenced in one lane using an Illumina HiSeq High Output (480 million reads, yielding more than 100M SE reads of 47 bases per sample). Each RNA-Seq analysis was carried out using two independent replicates.
(§2) RNA-Seq and GRO-seq Bioinformatics analysis—_For the analysis of the 24 h, 4sU and GRO-seq data, we used the RNA-Seq pipeline of UTAP (Kohen et al. 2019) to determine the differentially expressed genes. For the 2-hour data, reads were mapped to the H. sapiens GRCh38 reference genome using STAR (Dobin et al., 2013) and expression levels for each gene were quantified using htseq-count (Anders et al., 2015). Differentially expressed genes were identified using DESeq2 (Love et al., 2014). […] The reads coverage was calculated using bed files containing the desired genomic regions and orientation (awk command) and the bedtools coverage tool (Quinlan et al., 2010).
(§3) Since the RNA-seq following treatment with SPI-21 detects only polyadenylated transcripts and the treatment was effected for 2 hours, during which only a fraction of cells is in S-phase, an effect on histone genes was not found. Thus, to investigate further the regulation of histone genes by Spt5 using the identified SPIs, cells were treated for 24 hours with SPI-21 or SPI-18, to allow all cells to pass S-phase at least once. Following, mRNA was extracted and cDNA was prepared using random hexamers and the levels of 4 histone genes were determined. […] Spt5 requirement for expression of histone genes cannot be explained by a positive effect on elongation or mRNA processing since histone genes are very short and are intron-less. […] To resolve the discrepancy between the effect of Spt5 inhibition on steady-state levels and synthesis rate, the possibility that Spt5 is required for the processing of histone mRNAs was considered. In addition to the conserved stem-loop, histone genes have a canonical polyadenylation signal downstream of the stem-loop structure (FIG. 5B). It was therefore considered that Spt5 controls the choice between 3′ end processing via the stem-loop pathway or the polyadenylation pathway of histone pre-mRNAs. To this end, cDNA prepared by random hexamer and Poly-T the ratio between total and poly-A tailed histone genes was determined. […] Thus, the reduction in the histone gene expression upon Spt5 inhibition may be associated, at least in part, to a defect in 3′ end processing.

[3] = test system: replication-dependent histone genes; experiment: RNA-seq of 4sU metabolic labeling: replication-dependent histone genes
Protocol: as §1, §2, §3

COc1ccc(C=CC(=O)c2cc(O)ccc2O)cc1 [SPI-21]
Up-regulation of pro-inflammatory genes under basal conditions (i.e. inhibiting proximal promoter pausing of pro-inflammatory genes induced by Spt5) [1]: ++ (++ >3) | HIST1H1B level, RNA-seq [2]: 0.4 | HIST1H1E level, RNA-seq [2]: 0.5 | HIST1H2AG level, RNA-seq [2]: 0.4 | HIST1H2AH level, RNA-seq [2]: 0.5 | HIST1H2AI level, RNA-seq [2]: 0.5 | HIST1H2AK level, RNA-seq [2]: 0.6 | HIST1H2AL level, RNA-seq [2]: 0.5 | HIST1H2BF level, RNA-seq [2]: 0.5 | HIST1H3A level, RNA-seq [2]: 0.4 | HIST1H3B level, RNA-seq [2]: 0.5 | HIST1H3D level, RNA-seq [2]: 0.4 | HIST1H3F level, RNA-seq [2]: 0.5 | HIST1H3G level, RNA-seq [2]: 0.5 | HIST1H4A level, RNA-seq [2]: 0.5 | HIST1H4B level, RNA-seq [2]: 0.5 | HIST1H4C level, RNA-seq [2]: 0.7 | HIST1H4D level, RNA-seq [2]: 0.5 | HIST1H4H level, RNA-seq [2]: 0.7 | HIST2H2AC level, RNA-seq [2]: 0.5 | HIST2H3D level, RNA-seq [2]: 0.3 | HIST1H1B level, RNA-seq ([3]; 4sU labelling): 1.3 | HIST1H1E level, RNA-seq ([3]; 4sU labelling): 1.3 | HIST1H2AG level, RNA-seq ([3]; 4sU labelling): 1.3 | HIST1H2AH level, RNA-seq ([3]; 4sU labelling): 1.4 | HIST1H2AI level, RNA-seq ([3]; 4sU labelling): 1.4 | HIST1H2AK level, RNA-seq ([3]; 4sU labelling): 1.1 | HIST1H2AL level, RNA-seq ([3]; 4sU labelling): 1.1 | HIST1H2BF level, RNA-seq ([3]; 4sU labelling): 1.3 | HIST1H3A level, RNA-seq ([3]; 4sU labelling): 1.2 | HIST1H3B level, RNA-seq ([3]; 4sU labelling): 1.4 | HIST1H3D level, RNA-seq ([3]; 4sU labelling): 1.4 | HIST1H3F level, RNA-seq ([3]; 4sU labelling): 1.3 | HIST1H3G level, RNA-seq ([3]; 4sU labelling): 1.4 | HIST1H4A level, RNA-seq ([3]; 4sU labelling): 1.7 | HIST1H4B level, RNA-seq ([3]; 4sU labelling): 1.4 | HIST1H4C level, RNA-seq ([3]; 4sU labelling): 1.5 | HIST1H4D level, RNA-seq ([3]; 4sU labelling): 1.6 | HIST1H4H level, RNA-seq ([3]; 4sU labelling): 1.3 | HIST2H2AC level, RNA-seq ([3]; 4sU labelling): 1.3 | HIST2H3D level, RNA-seq ([3]; 4sU labelling): 1.4 | histone gene transcription, in words ([3]; 4sU metabolic labeling): moderate increase
